Data reported in patent US6794398B1, “Preventive/remedies for liver diseases” (Mitsubishi Pharma Corporation, priority 1999, dated 2004).

How the values were obtained:
[1] = system: Hepatic stellate cells (HSC); assay: Effect on production of collagen I in hepatic stellate cells (ELISA); format: cell-based, rat; settings: Y-27632 30 μM, DMEM without FCS, 48 hours of culture, n=4
Method: In the same manner as in Experimental Example 1, HSC were prepared from rat liver and cultured in DMEM medium containing 20% FCS for 8 days and changed to DMEM medium without FCS or DMEM medium containing Y-27632 (30 μM) but without FCS. After 48 hours of culture, the amount of collagen I contained in the supernatant was measured by ELISA (enzyme-linked immunosorbent assay) (Moshage H, et al., Hepatology 1990; 12: 511-518). As a result, the amount was 19.5±3.0 μg/μg DNA for the group without Y-27632 and 8.2±2.3 μg/μg DNA for the group with the addition of Y-27632, showing a significant low level for the group with the addition of Y-27632 (p<0.01, n=4).

[2] = system: Hepatic stellate cells (HSC); assay: Effect on cell morphology of hepatic stellate cell; format: cell-based, rat; settings: Y-27632 30 μM, DMEM with 1% FCS, one hour, phase contrast microscope
Method: Hepatic stellate cells (HSC) were prepared from the liver of male Wistar rat according to the method of Friedman et al (Friedman S. L, et al., Proc Natl Acad Sci USA 1985; 82: 8681-8685). HSC were cultured in Dulbecco's modified Eagle's medium (DMEM) containing 20% fetal calf serum (FCS) and the cells after 3 to 8 passages were used. HSC to be subjected to the experiment were sown in a dish treated with fibronectin (10 μg/ml), cultured in DMEM medium containing 20% FCS for 24 hours and changed to DMEM medium containing 1% FCS or DMEM medium containing Y-27632 (30 μM) and 1% FCS. One hour later, HSC were fixed with a 3.7% formaldehyde solution and observed under a phase contrast microscope.

[3] = system: rat with hepatic fibrosis induced by dimethylnitrosamine; assay: Effect on rat with hepatic fibrosis induced by dimethylnitrosamine; format: in vivo; settings: 30 mg/kg orally every day for 4 weeks, male Wistar rats, liver, 5 rats
Method: 1% Dimethylnitrosamine (100 μl/100 g rat body weight) was intraperitoneally administered to male Wistar rats for 3 consecutive days per week for 4 weeks (12 times in total) to prepare a hepatic fibrosis model rat. To the Y-27632 administration group, Y-27632 (30 mg/kg) was orally administered every day for 4 weeks from the day when the dimethylnitrosamine administration was started. To the control group, physiological saline was administered. Four weeks later, the liver was removed and the level of fibrogenesis of the tissue, collagen content and hydroxyproline amount were measured.
The level of fibrogenesis was measured as follows. A part of the removed liver was fixed with a formalin solution overnight, and a paraffin embedded piece was prepared and stained by Masson trichrome stain. The stained images were input in a computer through a digital camera (Fujix HC-1000, Fuji Film, Tokyo, Japan) and, using a computer-assisted morphometric analyzer (MacScope, Mitani corporation, Fukui, Japan), the area ratio of the collagen portion stained in bright green was determined as the degree of fibrogenesis.
The amout of tissue collagen was measured as follows according to the method of Shiba et al. (Shiba M, et al. Liver, 1998, Jun; 18(3): 196-204). That is, a part of the removed liver was homogenized with a 33-fold amount (ml/g) of 0.5M aqueous acetic acid solution in a Polytron PCU-2 homogenizer (Kinematica, Luzern, Switzerland). The homogenate was subjected to ultrasonication treatment for 2 min after freeze-thawing. After extraction with an acid, a fraction containing insoluble collagen was heated at 80° C. for 60 minutes to convert the insoluble collagen to water-soluble gelatin. The amount of gelatin was measured with a Sircol collagen assay kit (Biocolor, Belfast, Northern Ireland).
The amount of hydroxyproline was measured as follows. […] The amount of hydroxyproline was measured according to the method of Fujiwara et al. (Fujiwara et al., Anal. Biochem., 1987; 166: 72-8) with a high performance liquid chromatography system (SRL Inc., Tachikawa, Japan).

## C[C@@H](N)[C@H]1CC[C@H](C(=O)Nc2ccncc2)CC1 [Compound Y-27632, (+)-trans-4-(1-aminoethyl)-1-(4-pyridylcarbamoyl)cyclohexane 2HCl·H2O]
[1]
  amount of collagen I contained in the supernatant: 8.2±2.3 μg/μg DNA
[2]
  cell morphology of hepatic stellate cells: spindle-like shape with dendroidal protrusions (non-active type)
[3]
  content of collagen in the tissue: 601.3±67.7 μg/100 mg-rat liver weight
  content of hydroxyproline in the tissue: 29.8±9.1 μmol/g-rat liver weight
  level of fibrogenesis (area ratio of collagen portion, Masson trichrome stain): 6.3±0.7%
